We go through 2 molecules from patent US8710045B2, “Agents for preventing and treating disorders involving modulation of the ryanodine receptors” (The Trustees of Columbia University in the City of New York, priority 2004, dated 2014).

In one series the target is hERG potassium current (Homo sapiens, UniProt Q12809). As to the kind of experiment: S107 specificity: hERG potassium current. The following applies: 500 nM. On the technique in general: The hERG channel carries a current that helps repolarise heart muscle cells.
In the next series the test system is FDB muscle fibers. As to the kind of experiment: Confocal calcium imaging of isolated FDB muscle fibers during fatigue protocol. The format is in vivo, mouse. The note with it: FDB fibers from treated, chronically exercised mice. As to the method:
Confocal microscopy: Single flexor digitorum brevis (FDB) fibers were enzymatically dissociated by standard methods (Reiken, Lacampagne et al. 2003). Briefly, the muscle was dissected from the paw, placed in a modified Ringer's solution, and stripped of all fascia. Type 1 collagenase-(2 mg/ml, Sigma) in Ringer's solution was prepared fresh, and the muscle was digested for 2 hours at 37° C. in a incubator shaking at 125 rpm. The muscle was placed in fresh Ringer's and gently triturated. Single fibers were collected and allowed to attach to glass coverslips coated in laminin (Sigma L-2020). The cells were loaded with 2 μM fluo-4-AM ester (Invitrogen) for 20 minutes, placed on the Zeiss Live 5 microscope stage and superfused for 15 minutes with Ringer's. The fibers were paced at 1 Hz for 10 minutes prior to imaging baseline fiber properties. Linescan images were continuously acquired at 1 ms scan rate during a tetanic sequence consisting of 300 ms stimulation at 100 Hz with a 2 Hz train rate. Images were analyzed in ImageJ, and an F/F0 ratio was calculated for each fiber.
Reduced fatiguability in calstabin1 rebound FDB muscle fibers: Flexor digitorum brevis (FDB) muscle fibers were enzymatically dissociated from mice following the chronic exercise protocol and loaded with the calcium indicator fluo-4. […] The kinetics of Ca^2+ release and reuptake during single twitches at 1 Hz were assessed.

Series [1] has as its system C57BL/6J mice. As to the kind of experiment: Morris water maze spatial learning in exercised mice. The format is in vivo, mouse. The following applies: end of 21-day testing period, p approximately 0.2, n=8. As for the experimental part:
16 wild type C57BL/6J 3-month-old mice, pairwise-matched for sex, age, and body weight, were randomized to either S 107 treatment (10 mg/ml; 0.25 μl/hr subcutaneous osmotic pump) or “vehicle” (25% DMSO in dH2O) treatment groups.
Mice were sacrificed after 21 days for performing biochemistry, calcium imaging and ex vivo function studies.
The layout of the water maze system consists of a circular water tank divided into four quadrants (labeled 1 thru 4 in FIG. 58, with four hidden platforms (labeled 5 to 8 in FIG. 58). The following protocol was followed: Day 1: mice trained to find “hidden” platform with visible marker on platform from random starting location. On days 2-4, the visible cue was removed, and mice were repeatedly challenged to find hidden platform at target 5 in quadrant 1. The time taken for each mouse to reach the target, i.e. the “latency,” was recorded. On day 5, the previous day's protocol was repeated, then the hidden platform was removed, and each mouse's movements recorded to quantify time in various target regions. The protocol was repeated in week 2.
The platform was then removed, and the swimming pattern of the mice was assessed at the end of the 21-day testing period.

For series [2], the system named is C57BL/6J mice. As to the kind of experiment: S36 chronic exercise model: swimming velocity tracking and treadmill running. The format is in vivo, mouse. As for the experimental part:
Drug Delivery: Eight-week-old, wild-type, weight-matched, C57BL/6J littermate mice were randomized to either S36 or vehicle treatment. On day −2, osmotic infusion pumps (Alzet Model 2004, 200 μl total volume, 0.25 μl/hr delivery, Durect, Cupertino, Calif.) filled with either 200 ul of PBS or 200 μl of S36 (10 μg/ul diluted in PBS) were implanted subcutaneously on the dorsal surface of the mice by a horizontal incision just behind the neck. Mice were allowed to recover for three days prior to the initiation of exercise. Standard food and water were provided ad libitum.
Exercise Protocols: Beginning on day 1, mice were exercised for three weeks by swimming 5 days/week and by running on a treadmill an additional 1 day/week.
Swimming Model: The daily swimming protocol consisted of swimming sessions twice-daily separated by one-hour rest periods. After an initial conditioning regimen lasting 5 days during which the swimming sessions were increased in 10 minute increments from 40 minutes each to 80 minutes each, the swimming sessions thereafter lasted 90 minutes each. A 30 cm wide by 30 cm long opaque acrylic tank was filled with tap water to a depth of at least 20 cm. Water was circulated and warmed to 32-34 degrees C. using a separate reservoir with heating element, thermostat, and pump. Compressed room air was bubbled from Tygon tubing with small needle holes placed at the bottom of the tank to agitate the water surface. 4 mice, matched pair-wise with respect to treatment group, swam at any one time in the tank.
In order to track the swimming activity of each individually identified mouse, a video tracking system was used (San Diego Instruments, San Diego, Calif.), which includes Sony CCD video recorder, DVD/Hard Drive, frame grabber card, and custom SMART 2.0 software with Social Behavior package capable of tracking up to 8 mice simultaneously under ideal conditions.) Mice were anesthetized by using 1.5% isoflurane in O2, and small, 0.75 cm, Velcro coins were sutured with 5-0 nylon suture to the scalp of each mouse. Plastic 1 cm colored dots, glued to the hook side of the Velcro, could be securely attached to the mouse and used for multiple subject tracking under appropriate lighting conditions. Each resultant mouse track in x,y, and time was analyzed and mean velocities, and distance swam over 2, 5, and 10 minute intervals was obtained.
Treadmill running: A Columbus Instruments (Columbus, Ohio) treadmill (Model: Exer-6M Treadmill with Treadmill Shock Detection Unit) with 6 lanes was used to run the mice. Mice were placed in their respective lanes at the lowest speed (7 meters/min) with the shocking apparatus turned off and allowed to adjust to the surroundings for 6 minutes. The forward half of the treadmill was covered with aluminum foil to block out light. A desk lamp illuminated the shocking area at the rear of the treadmill. After the adjustment period, the electric current was turned on, and the number of shocks delivered during the next two three minute intervals (training period) were recorded. The shock counter was then reset, the speed was increased to 10 m/min, and visits to the shocking area and shocks delivered to each mouse were recorded at three-minute intervals until the end of the experiment. At regular intervals, the speed of the treadmill was ramped up from the initial 10 m/min to as high as 36 m/min. The speed was increased no more than 2 m/min every 6 minutes. […]

The structures appear in SMILES notation. Like-named read-outs stand apart in the source and are kept apart here.

hERG potassium current, sequence (Q12809 whole entry): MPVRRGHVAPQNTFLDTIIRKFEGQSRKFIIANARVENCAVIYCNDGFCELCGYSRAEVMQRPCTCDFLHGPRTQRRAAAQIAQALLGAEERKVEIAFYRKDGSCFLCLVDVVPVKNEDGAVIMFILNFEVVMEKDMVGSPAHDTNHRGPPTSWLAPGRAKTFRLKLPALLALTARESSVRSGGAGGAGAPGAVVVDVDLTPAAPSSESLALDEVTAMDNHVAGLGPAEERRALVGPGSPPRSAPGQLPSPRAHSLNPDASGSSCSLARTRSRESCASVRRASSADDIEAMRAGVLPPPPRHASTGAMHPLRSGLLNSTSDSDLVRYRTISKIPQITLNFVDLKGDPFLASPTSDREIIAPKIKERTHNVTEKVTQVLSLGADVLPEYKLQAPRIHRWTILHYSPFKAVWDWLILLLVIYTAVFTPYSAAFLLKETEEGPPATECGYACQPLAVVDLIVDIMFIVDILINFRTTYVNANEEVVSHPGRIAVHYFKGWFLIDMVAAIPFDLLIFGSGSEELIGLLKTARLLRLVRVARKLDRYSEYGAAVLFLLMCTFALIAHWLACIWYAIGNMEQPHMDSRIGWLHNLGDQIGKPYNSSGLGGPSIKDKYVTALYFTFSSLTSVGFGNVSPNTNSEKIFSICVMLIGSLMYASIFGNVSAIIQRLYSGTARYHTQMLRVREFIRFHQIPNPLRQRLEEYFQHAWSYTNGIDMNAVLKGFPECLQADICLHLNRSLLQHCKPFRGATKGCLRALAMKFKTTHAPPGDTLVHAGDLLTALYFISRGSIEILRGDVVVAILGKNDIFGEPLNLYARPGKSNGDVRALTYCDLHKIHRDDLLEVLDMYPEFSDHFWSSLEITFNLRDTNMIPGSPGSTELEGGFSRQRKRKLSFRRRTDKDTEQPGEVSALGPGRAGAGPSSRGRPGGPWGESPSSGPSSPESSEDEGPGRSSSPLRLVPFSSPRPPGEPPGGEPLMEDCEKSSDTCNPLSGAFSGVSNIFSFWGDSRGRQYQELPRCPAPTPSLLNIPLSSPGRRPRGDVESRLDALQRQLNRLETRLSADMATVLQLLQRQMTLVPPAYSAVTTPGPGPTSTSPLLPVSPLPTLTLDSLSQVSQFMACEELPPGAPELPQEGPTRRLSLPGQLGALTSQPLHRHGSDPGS

Turning to `COc1ccc2c(c1)CN(C)CCS2` [S107], the “effect on hERG potassium current” value on hERG potassium current is given as “not to affect”. Also, the “peak tetanic calcium transients during fatigue protocol” value in the series with FDB muscle fibers was “delayed decline in peak tetanic calcium transients”. Also, in the series with C57BL/6J mice [1], the “learning / persistence in Morris water maze probe” value was “trend towards improved learning or increased persistence”.

In the case of `COc1ccc2c(c1)CN(C(=O)C(=O)O)CCS2` [S36], the entries for the “swimming velocity vs PBS” value with C57BL/6J mice [2] (day 1 of exercise) and in the series on C57BL/6J mice [2] (day 14) were “no substantial difference” and “no significant difference”, respectively. For the same molecule, the “swimming velocity and treadmill distance/fatigue time vs PBS” value with C57BL/6J mice [2] (day 7 of exercise) is reported as “no substantial difference”. For the same molecule, the “treadmill running performance vs PBS” value with C57BL/6J mice [2] (day 14) and with C57BL/6J mice [2] (day 16) was “trend toward improved performance” in each case. The “plasma levels preventing exercise-induced sudden cardiac death compared with JTV-519” value in the series with FKBP12.6+/− mice (mouse, in vivo) is given as “lower plasma levels compared with JTV-519”. The “cardiac arrhythmias and sudden cardiac death” value with FKBP12.6+/− mice (plasma level 0.02 μM) and in the series on FKBP12.6+/− mice (plasma level 1 μM) was “prevent” in each case.
